We go through 21 compounds from patent US7998989B2, “2-Imino-1,3-thiazoline-based compounds and T-type calcium channel inhibitors containing the same” (Korea Institute of Science and Technology, priority 2007, dated 2011).

Like-named read-outs stand apart in the source and are kept apart here.

Data set [1] addresses T1, α1G T-type calcium channel (Homo sapiens, UniProt O43497).
T1 construct: host or cells: HEK293
Description: Assay for % inhibiting activity against T-type calcium channel using FDSS6000 (fluo-3 calcium imaging, KCl activation). It is filed as cell-based. A digest of the protocol:
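HEK293 cells stably expressing α1G and Kir2.1 loaded with 5 μM fluo-3/AM, then in HEPES buffer (pH 7.4) with 10 mM CaCl2. Compound applied 75 s before 75 mM KCl; intracellular Ca2+ read as […] area, % inhibition relative to untreated control.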

The mark [2] stands for this setting: 10 μM, FDSS (% inhibition), comparative compounds where R6 is a phenyl group, read-out: FDSS.
Where [3] appears, read: 10 μM, HEK293 cells stably expressing α1G T-type calcium channel and Kir2.1, compounds of the examples.
Where [4] appears, read: HEK293, 10 μM, HEK293 cells stably expressing α1G T-type calcium channel and Kir2.1, compounds of the examples, read-out: FDSS (% inhibition)/10uM.

T1 sequence (O43497 whole entry): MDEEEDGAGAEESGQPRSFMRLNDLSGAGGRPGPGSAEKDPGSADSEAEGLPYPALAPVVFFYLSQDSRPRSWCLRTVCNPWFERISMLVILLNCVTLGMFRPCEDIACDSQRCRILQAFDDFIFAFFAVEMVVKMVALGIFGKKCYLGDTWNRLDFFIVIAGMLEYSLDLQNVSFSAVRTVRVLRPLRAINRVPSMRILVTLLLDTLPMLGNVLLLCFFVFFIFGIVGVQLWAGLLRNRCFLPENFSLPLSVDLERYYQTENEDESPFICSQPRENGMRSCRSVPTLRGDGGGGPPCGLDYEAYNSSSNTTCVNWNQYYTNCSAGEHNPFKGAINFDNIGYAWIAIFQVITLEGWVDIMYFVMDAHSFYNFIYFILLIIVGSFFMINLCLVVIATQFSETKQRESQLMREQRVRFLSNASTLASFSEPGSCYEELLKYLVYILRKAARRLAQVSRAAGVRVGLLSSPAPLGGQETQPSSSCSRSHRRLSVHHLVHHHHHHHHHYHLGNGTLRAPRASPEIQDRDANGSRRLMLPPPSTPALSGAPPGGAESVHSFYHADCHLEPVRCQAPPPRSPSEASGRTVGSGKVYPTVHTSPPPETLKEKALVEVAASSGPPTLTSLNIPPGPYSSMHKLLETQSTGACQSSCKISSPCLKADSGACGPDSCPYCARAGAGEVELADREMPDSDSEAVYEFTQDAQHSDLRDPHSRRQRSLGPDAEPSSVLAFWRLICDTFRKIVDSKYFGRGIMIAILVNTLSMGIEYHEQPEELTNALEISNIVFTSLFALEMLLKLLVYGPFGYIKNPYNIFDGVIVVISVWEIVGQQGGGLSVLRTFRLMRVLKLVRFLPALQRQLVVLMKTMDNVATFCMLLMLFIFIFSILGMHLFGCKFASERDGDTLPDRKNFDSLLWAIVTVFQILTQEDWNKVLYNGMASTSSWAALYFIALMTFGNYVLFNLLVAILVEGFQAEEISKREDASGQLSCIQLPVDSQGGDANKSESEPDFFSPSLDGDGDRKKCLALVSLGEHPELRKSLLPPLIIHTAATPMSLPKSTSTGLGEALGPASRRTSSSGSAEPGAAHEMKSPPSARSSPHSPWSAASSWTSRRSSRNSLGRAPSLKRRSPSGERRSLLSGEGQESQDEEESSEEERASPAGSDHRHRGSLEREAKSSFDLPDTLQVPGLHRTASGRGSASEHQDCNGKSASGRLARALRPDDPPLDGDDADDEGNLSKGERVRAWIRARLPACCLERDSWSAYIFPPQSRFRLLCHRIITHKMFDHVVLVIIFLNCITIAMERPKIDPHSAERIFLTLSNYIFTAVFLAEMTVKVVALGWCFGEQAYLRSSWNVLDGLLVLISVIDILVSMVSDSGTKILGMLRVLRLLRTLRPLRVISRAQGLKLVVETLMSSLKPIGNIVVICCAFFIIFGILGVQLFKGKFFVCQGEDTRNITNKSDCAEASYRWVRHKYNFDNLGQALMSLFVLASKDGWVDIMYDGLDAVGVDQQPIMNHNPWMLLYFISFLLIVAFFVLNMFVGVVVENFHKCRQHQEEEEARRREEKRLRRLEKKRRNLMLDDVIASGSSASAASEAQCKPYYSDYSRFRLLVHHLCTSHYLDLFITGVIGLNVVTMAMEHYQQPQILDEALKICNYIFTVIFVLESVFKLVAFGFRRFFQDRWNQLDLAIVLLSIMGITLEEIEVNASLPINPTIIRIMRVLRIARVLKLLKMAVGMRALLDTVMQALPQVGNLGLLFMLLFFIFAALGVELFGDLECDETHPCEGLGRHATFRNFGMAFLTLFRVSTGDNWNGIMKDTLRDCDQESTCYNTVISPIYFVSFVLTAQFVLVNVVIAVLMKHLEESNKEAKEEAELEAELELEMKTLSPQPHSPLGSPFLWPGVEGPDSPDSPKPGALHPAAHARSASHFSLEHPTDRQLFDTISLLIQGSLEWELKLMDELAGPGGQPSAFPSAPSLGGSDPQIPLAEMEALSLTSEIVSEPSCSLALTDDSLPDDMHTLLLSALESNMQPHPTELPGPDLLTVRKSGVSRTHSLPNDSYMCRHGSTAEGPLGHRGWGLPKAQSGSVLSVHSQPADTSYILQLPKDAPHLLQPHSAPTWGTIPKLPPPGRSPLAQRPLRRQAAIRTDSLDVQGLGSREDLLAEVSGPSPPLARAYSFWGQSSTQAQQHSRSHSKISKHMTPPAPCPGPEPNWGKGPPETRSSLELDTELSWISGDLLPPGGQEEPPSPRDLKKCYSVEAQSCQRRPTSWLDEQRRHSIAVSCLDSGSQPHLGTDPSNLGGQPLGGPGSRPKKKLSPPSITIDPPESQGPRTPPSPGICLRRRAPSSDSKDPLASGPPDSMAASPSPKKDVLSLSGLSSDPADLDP

`CN1C(=Nc2ccc(C(F)(F)F)cc2)SCC1CC(=O)Nc1ccc(Cl)cc1F.Cl` (stereo not drawn) [KHG23068, [2-(4-trifluoromethylphenylimino)-3-methyl-1,3-thiazolidine-4-yl]-N-(4-chloro-2-fluorophenyl)-acetamide hydrochloride] returned a melting point of 222 to 223 °C. In addition, in data set [1] (setting [2]), the inhibition at 10 µM worked out at 5.76%.
In the case of `Cc1ccc(NC(=O)C2CSC(=NC3CCCCCC3)N2C)cc1.Cl` (stereo not drawn) [KHG24629, (2-cycloheptylimino-3-methyl-1,3-thiazolidine-4-yl)-N-(4-methylphenyl)-carboxamide hydrochloride], the melting point amounted to 202.1 °C. For the same compound, the “FDSS (% inhibition)/10uM” value in data set [1] (setting [3]) is recorded as 47.03%.
The compound `CCc1ccc(N=C2SCC(CC(=O)Nc3ccc(Cl)cc3F)N2C)cc1.Cl` (stereo not drawn) [KHG23072, [2-(4-ethylphenylimino)-3-methyl-1,3-thiazolidine-4-yl]-N-(4-chloro-2-fluorophenyl)-acetamide hydrochloride] returned a melting point of 242 °C. The inhibition at 10 µM in data set [1] (setting [2]) was determined as 29.4%.
Compound `CCCN1C(=NC2CCCCC2)SCC1CC(=O)Nc1cc(Cl)cc(Cl)c1.Cl` (stereo not drawn) [KHG24415, [2-cyclohexylimino-3-(n-propyl)-1,3-thiazolidine-4-yl]-N-(3,5-dichlorophenyl)-acetamide hydrochloride] displayed a melting point of 109.2 °C. The inhibition at 10 µM in data set [1] (setting [4]) was found to be 64.2%.
Compound `CN1C(=NC2CCCCCC2)SCC1C(=O)Nc1cc(C(F)(F)F)cc(C(F)(F)F)c1.Cl` (stereo not drawn) [KHG24632, (2-cycloheptylimino-3-methyl-1,3-thiazolidine-4-yl)-N-(3,5-ditrifluoromethylphenyl)-carboxamide hydrochloride] had a melting point of 202 °C. For the same compound, in data set [1] (setting [3]), the “FDSS (% inhibition)/10uM” value was 57.06%.
`CCCCN1C(=NC23CC4CC(CC(C4)C2)C3)SCC1CC(=O)Nc1ccc(C(F)(F)F)cc1.Cl` (stereo not drawn) [KHG24777, [2-(1-adamantylimino)-3-(n-butyl)-1,3-thiazolidine-4-yl]-N-(4-trifluoromethylphenyl)-acetamide hydrochloride] came in with a melting point of 220 °C. In addition, the inhibition at 10 µM in data set [1] (setting [4]) came to 49.2%.
In the same order, the values of `CN1C(=NC2CC2)SCC1CC(=O)Nc1ccc(Oc2ccccc2)cc1.Cl` (stereo not drawn) [KHG24141, (2-cyclopropylimino-3-methyl-1,3-thiazolidine-4-yl)-N-(4-phenoxyphenyl)-acetamide hydrochloride] are 219.5 to 220 °C and 35.7%.
For the compound `CC(C)c1ccc(NC(=O)CC2CSC(=NC3CCCC3)N2C)cc1.Cl` (stereo not drawn) [KHG24115, (2-cyclopentylimino-3-methyl-1,3-thiazolidine-4-yl)-N-(4-isopropylphenyl)-acetamide hydrochloride], the melting point fell in the range of 213 to 215.5 °C. In addition, the inhibition at 10 µM in data set [1] (setting [4]) is 49.9%.
`CN1C(=NCCc2ccccc2)SCC1CC(=O)Nc1ccc(Cl)cc1.Cl` (stereo not drawn) [KHG24228, (2-phenethylimino-3-methyl-1,3-thiazolidine-4-yl)-N-(4-chlorophenyl)-acetamide hydrochloride] came in with a melting point of 226.7 °C. In addition, the inhibition at 10 µM in data set [1] (setting [4]) is 48.6%.
In the same order, the values of `CN1C(=NC2CCCCCC2)SCC1CC(=O)Nc1ccc([N+](=O)[O-])cc1.Cl` (stereo not drawn) [KHG24445, (2-cycloheptylimino-3-methyl-1,3-thiazolidine-4-yl)-N-(4-nitrophenyl)-acetamide hydrochloride] are 242 °C and 50.8%.
`CCCCN1C(=NC2CCCCC2)SCC1CC(=O)Nc1ccc(Oc2ccccc2)cc1.Cl` (stereo not drawn) [KHG24281, [2-cyclohexylimino-3-(n-butyl)-1,3-thiazolidine-4-yl]-N-(4-phenoxyphenyl)-acetamide hydrochloride] showed a melting point of 213.3 °C. The inhibition at 10 µM in data set [1] (setting [4]) stood at 31.4%.
With `CCCN1C(=NC2CCCCC2)SCC1CC(=O)Nc1ccc(CC)cc1.Cl` (stereo not drawn) [KHG24298, [2-cyclohexylimino-3-(n-propyl)-1,3-thiazolidine-4-yl]-N-(4-ethylphenyl)-acetamide hydrochloride], the melting point is 221.4 °C. Moreover, in data set [1] (setting [4]), the inhibition at 10 µM worked out at 60.4%.
In the same order, the values of `CN1C(=NCC2CCCCC2)SCC1CC(=O)Nc1cc(C(F)(F)F)cc(C(F)(F)F)c1.Cl` (stereo not drawn) [KHG24218, (2-cyclohexylmethylimino-3-methyl-1,3-thiazolidine-4-yl)-N-(3,5-ditrifluoromethylphenyl)-acetamide hydrochloride] are 119.6 °C and 52.8%.
Take `Cc1ccc(N=C2SCC(CC(=O)Nc3ccc(Cl)cc3F)N2C)cc1.Cl` (stereo not drawn) [KHG23069, [2-(4-methylphenylimino)-3-methyl-1,3-thiazolidine-4-yl]-N-(4-chloro-2-fluorophenyl)-acetamide hydrochloride]: the melting point is 243 to 245 °C. Further, the inhibition at 10 µM in data set [1] (setting [2]) amounted to 4.33%.
In turn, `CN1C(=Nc2ccc(OC(F)(F)F)cc2)SCC1CC(=O)Nc1ccc(Cl)cc1F.Cl` (stereo not drawn) [KHG23070, [2-(4-trifluoromethoxyphenylimino)-3-methyl-1,3-thiazolidine-4-yl]-N-(4-chloro-2-fluorophenyl)-acetamide hydrochloride] gave a melting point of 236 to 237 °C. In addition, the inhibition at 10 µM in data set [1] (setting [2]) was 7.44%.
Regarding `COc1ccc(NC(=O)CC2CSC(=NC3CCCCC3)N2C)cc1OC.Cl` (stereo not drawn) [KHG24090, (2-cyclohexylimino-3-methyl-1,3-thiazolidine-4-yl)-N-(3,4-dimethoxyphenyl)-acetamide hydrochloride], the melting point is 233 to 234 °C. In addition, in data set [1] (setting [4]), the inhibition at 10 µM is 32.1%.
In the same order, the values of `Cl.O=C(CC1CSC(=NC2CCCCC2)N1Cc1ccccc1)Nc1ccc(Cl)cc1` (stereo not drawn) [KHG24299, (2-cyclohexylimino-3-benzyl-1,3-thiazolidine-4-yl)-N-(4-chlorophenyl)-acetamide hydrochloride] are 199 °C and 45.6%.
In the same order, the values of `CN1C(=NCC2CCCCC2)SCC1CC(=O)Nc1ccc(Cl)cc1.Cl` (stereo not drawn) [KHG24230, (2-cyclohexylmethylimino-3-methyl-1,3-thiazolidine-4-yl)-N-(4-chlorophenyl)-acetamide hydrochloride] are 177.1 °C and 33%.
`CN1C(=NC2CCCCC2)SCC1CC(=O)Nc1cc(Cl)ccc1Cl.Cl` (stereo not drawn) [KHG24532, (2-cyclohexylimino-3-methyl-1,3-thiazolidine-4-yl)-N-(2,5-dichlorophenyl)-acetamide hydrochloride]: the melting point is 208 °C. Also, the inhibition at 10 µM in data set [1] (setting [4]) is 52.5%.
For the compound `CC(C)c1ccc(NC(=O)CC2CSC(=Nc3ccc(F)c(Cl)c3)N2C)cc1.Cl` (stereo not drawn) [KHG21947, [2-(3-chloro-4-fluorophenylimino)-3-methyl-1,3-thiazolidine-4-yl]-N-(4-isopropylphenyl)-acetamide hydrochloride], the melting point lay in the range of 239 to 241 °C. Also, in data set [1] (setting [2]), the inhibition at 10 µM came out at 23.9%.
Regarding `CN1C(=NC2CCCCC2)SCC1CC(=O)Nc1cc(Cl)c(Cl)cc1Cl.Cl` (stereo not drawn) [KHG24533, (2-cyclohexylimino-3-methyl-1,3-thiazolidine-4-yl)-N-(2,4,5-trichlorophenyl)-acetamide hydrochloride], the melting point is 186 °C. The inhibition at 10 µM in data set [1] (setting [4]) worked out at 48.9%.
